Experimental data: article PMC3765993, “The duration of sleep promoting efficacy by dual orexin receptor antagonists is dependent upon receptor occupancy threshold” (BMC Neuroscience, 2013)
Like-named read-outs stand apart in the source and are kept apart here.

Key:
[1] = Plasma and CSF compound levels in satellite rats; details: rats
Experimental: Separately, the relationship between OX2R occupancy relative to plasma exposure was determined by administering DORA-12 intravenously (i.v.) over a range of doses to transgenic rats expressing human OX2R to determine a full occupancy curve over a wide range of plasma concentrations in order to define the maximal occupancy against which raw occupancy values could be normalized. This relationship was then used to determine the OX2R occupancy in PSG experiments from measured plasma concentrations.
Occupancy of human OX2R in transgenic rats expressing the receptor via the rat enolase promoter was performed ex vivo in radioligand-binding-displacement assays essentially as previously described with minor modifications. To determine the relationship between OX2R occupancy for a given compound over a full range of plasma and CSF concentrations, hOX2R-expressing rats were dosed i.v. with compound. Immediately following 30 min of i.v. administration, animals were anesthetized, sacrificed, and CSF, blood, and brain tissue were harvested and frozen for analysis. Frozen tissue was weighed and thawed coincident with homogenization. The homogenate was pelleted at 21,000 × g for 1 min and the pellet was resuspended. […] Non-specific binding was determined by the addition of 1000-fold excess unlabeled ligand. Experimental (dosed)-specific binding was compared with control (vehicle-dosed) binding ([specific total counts minus specific experimental counts]/specific total counts × 100 = percent occupancy). Raw occupancy values determined in this manner over a range of plasma and CSF values were then used to construct a normalized curve where the theoretical maximum occupancy value was defined as 100% and occupancies relative to plasma or CSF values were fit to a […] (hyperbola) curve (GraphPad Prism, San Diego, CA, USA). […] In separate experiments, plasma, CSF, and brain tissue was collected at time points following dosing to directly measure compound levels and corresponding OX2R occupancies at these times. Resulting occupancy relative to measured plasma levels of compound was fit to a normalized binding curve as described previously.

OX2R [2] = biological target: T1, OX2R (Homo sapiens, UniProt O43614); assay: Human plasma concentration calculated for a given OX2R occupancy (from transgenic rat occupancy, free-fraction normalized); type: in vivo; details: free + bound; normalized for free fraction (rat 1.4%, human 1.0%)
T1 sequence (O43614 1-444): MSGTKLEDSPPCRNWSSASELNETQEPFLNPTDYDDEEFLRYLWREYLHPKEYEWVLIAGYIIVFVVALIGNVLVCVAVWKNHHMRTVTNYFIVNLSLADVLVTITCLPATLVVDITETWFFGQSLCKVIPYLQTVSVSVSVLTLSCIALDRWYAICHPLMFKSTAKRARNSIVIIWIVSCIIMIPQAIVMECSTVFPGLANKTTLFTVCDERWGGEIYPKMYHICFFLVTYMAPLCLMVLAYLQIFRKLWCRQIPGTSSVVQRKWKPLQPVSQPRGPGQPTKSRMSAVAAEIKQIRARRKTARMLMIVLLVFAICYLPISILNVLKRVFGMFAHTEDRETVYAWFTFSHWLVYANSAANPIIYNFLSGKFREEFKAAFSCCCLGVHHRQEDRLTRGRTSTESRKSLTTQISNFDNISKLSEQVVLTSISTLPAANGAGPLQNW

dogs = details: cited from earlier work
OX2R [3] = biological target: T1, OX2R; details: free + bound; cited from earlier work
[4] = Free plasma fraction, human
Orexin 2 receptor = biological target: T2, Orexin 2 receptor (Homo sapiens, UniProt O43614); assay: Orexin 2 receptor binding kinetics
T2 sequence (O43614 1-444): T1 sequence (O43614 1-444)

[5] = Unbound (free) plasma fraction, rat
[6] = Unbound (free) plasma fraction, dog
[7] = Suvorexant plasma levels in satellite dogs; details: 1 or 3 mg/kg p.o.
[8] = Suvorexant plasma levels in humans (Phase 1)
OX2R [9] = biological target: T1, OX2R; assay: OX2R occupancy, ex vivo radioligand-binding displacement in transgenic rats expressing human OX2R; design: from tissue; host or cells: brain homogenate of transgenic rats expressing hOX2R under the rat enolase promoter; species or system transgenic rat; details: rats, calculated from plasma value on normalized occupancy curve
Description: Frozen tissue was weighed and thawed coincident with homogenization.

For `Cc1ccc(-n2nccn2)c(C(=O)N2CCN(c3nc4cc(Cl)ccc4o3)CC[C@H]2C)c1` [Suvorexant, [(7R)-4-(5-chloro-1,3-benzoxazol-2-yl)-7-methyl-1,4-diazepan-1-yl][5-methyl-2-(2H-1,2,3-triazol-2-yl)phenyl]methanone], the Plasma ([1]; dose 10 mg/kg) was 1600.0 nM, the Plasma ([1]; dose 30 mg/kg) was 2100.0 nM and the Plasma ([1]; dose 100 mg/kg) was 5100.0 nM. The “Human plasma concentration calculated to correspond to 65% OX2R occupancy” value (OX2R [2]) was 0.33 µM, the “Duration of effects on active wake” value (dogs; 1 mg/kg) was “up to 4 h” and the “Duration of effects on active wake” value (dogs; 3 mg/kg) was “up to 7.5 h”. The “Plasma level calculated to correspond to 80% OX2R occupancy in humans” value (OX2R [3]) was 0.71 µM, the fraction unbound [4] was 0.01 and the “T1/2 OFF (half-life off-rates)” value (Orexin 2 receptor) was 1.49 h. For the same compound, the “T1/2 ON (binding half-life)” value (Orexin 2 receptor; almorexant applied 3-fold above its Kd (value an underestimate)) was 1.34 h, the fraction unbound [5] was 0.014 and the fraction unbound [6] was 0.01. The “Plasma concentration at time points when efficacy was observed” value [7] was over 342 nM, the “Plasma exposure corresponding to efficacy” value [7] was over 342 nM and the Tmax ([8]; human, in vivo) was at most 3 h. For the same compound, the half-life ([8]; human, in vivo) was over 8 h, the “Post-dose time by which mean plasma concentrations fell below level for 65% OX2R occupancy” value ([8]; humans, 10 and 20 mg doses) was at most 8 h and the “OX2R Occ (% max)” value (OX2R [9]; dose 10 mg/kg) was 92.6 % max. For the same compound, the “OX2R Occ (% max)” value (OX2R [9]; dose 30 mg/kg) was 94.3 % max and the “OX2R Occ (% max)” value (OX2R [9]; dose 100 mg/kg) was 97.6 % max.
